Laboratory results taken from article PMC11187542, “Identification of fragments targeting SMYD3 using highly sensitive kinetic and multiplexed biosensor-based screening” (RSC Medicinal Chemistry, 2024).
Several values for one entry are separate records, joined by “and”; a condition that tells them apart may be missing. Equal values may be shown once.

Columns and labels:
[1] = target: T1, SMYD3 (Homo sapiens, UniProt Q9H7B4); assay: X-ray crystallography of SMYD3-fragment complexes (co-crystallization and soaking); set-up: key to XRC: success or failure of crystallization in complex with SMYD3: The success (+) or failure (−) of crystallization in complex with SMYD3; The success (+) or failure (−) of crystallization in complex with SMYD3
T1 construct: Full length recombinant SMYD3 was produced as previously reported; made in house; host or cells: E. coli BL21(DE3), in some cases Rosetta 2
T1 sequence (Q9H7B4 1-428): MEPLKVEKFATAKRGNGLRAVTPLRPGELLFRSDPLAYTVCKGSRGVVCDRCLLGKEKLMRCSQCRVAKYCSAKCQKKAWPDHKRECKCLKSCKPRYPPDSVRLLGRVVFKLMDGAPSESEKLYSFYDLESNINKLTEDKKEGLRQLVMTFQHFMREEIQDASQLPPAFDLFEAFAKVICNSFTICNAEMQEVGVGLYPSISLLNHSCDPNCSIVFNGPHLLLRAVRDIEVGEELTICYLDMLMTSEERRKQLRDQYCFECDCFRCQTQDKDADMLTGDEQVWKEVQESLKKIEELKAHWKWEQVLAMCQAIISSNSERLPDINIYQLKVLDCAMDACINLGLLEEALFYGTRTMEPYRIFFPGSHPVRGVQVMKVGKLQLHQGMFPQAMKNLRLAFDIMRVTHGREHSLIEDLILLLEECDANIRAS
Text: To identify binding sites and binding modes, the fragment hits (Table 1) were used in both co-crystallization and soaking experiments to obtain SMYD3-fragment co-crystals for X-ray crystallographic analyses. Diffraction data of 1.6–1.9 Å maximum resolution were obtained for four fragments (Fig. 5). For data collection and refinement statistics, see ESI, ^† Table S1.
Four new sites were thus identified.
Polder (F0–Fc) maps (Fig. 5, right) were generated to establish whether the observed electron density features were more likely to represent background noise or to belong to bound fragments. These omit maps are generated upon exclusion of the ligand and surrounding solvent from the model, which aids in visualizing weak densities. […] For fragments FL01507, FL08580 and FL08619, a comparison of the maps obtained after refinement with a bound fragment with maps obtained upon their replacement with either glycerol or acetate, which were present in the crystallization or cryo-protectant solutions, respectively, was required.
8 mg mL^−1 of SMYD3 in storage buffer (TBS buffer containing 2 mM DTT) was pre-incubated for 4–8 hours with 5 mM of a respective fragment hit compound and 10% (v/v) DMSO. Subsequently, 1 μL of this solution was mixed with an equal volume of reservoir solution (100 mM Tris, 100 mM magnesium acetate, 15–17% PEG3350, pH 8.25–8.75) to create the drops for co-crystallization by hanging drop vapour diffusion performed at 20 °C. Needle-like co-crystals nucleated within 12 h of equilibration against the reservoir. In addition, crystals of SMYD3 obtained in ligand-free crystallization setups were soaked with fragment solution prior to freezing. All crystals were cryo-protected via brief immersion in reservoir solution supplemented with 10% (v/v) glycerol.
Diffraction data were collected at beamline ID23-1 of the European Synchrotron Radiation Facility (ESRF, Grenoble, France). Data were indexed, auto-processed, scaled and merged on-site using the implemented data processing routines and software. Fragment-associated electron density features were identified upon data analysis with the Pipedream system (version 1.4.0, Global Phasing Ltd, Cambridge, United Kingdom), which includes data processing with autoPROC,[14] molecular replacement with Phaser,[15] structure refinement with BUSTER version 2.10.4 (Global Phasing Ltd, Cambridge, United Kingdom), automated ligand fitting with Rhofit (Global Phasing Ltd, Cambridge, United Kingdom) and BUSTER post-refinement.[16] Refinement was done with Phenix,[17] and model building with Coot.[18] (F0–Fc) difference density maps for models, from which ligand atoms and surrounding water molecules were removed, were generated using Phenix.

[2] = target: T1, SMYD3; assay: GCI biosensor multi cycle kinetic confirmation of hits; type: binding; settings: two-fold serial dilution starting at 250 μM, 15 °C, global fit 1:1 model
Experimental: Selected screening hits were also re-tested by conventional multi cycle kinetic analysis in order to confirm the interactions (some compounds were no longer available). Two variants of the GCI biosensor assay were set up, using different immobilisation levels, to allow the confirmation of hits over a broad range of affinities. […] The kinetics varied for the selected hits (ESI, ^† Fig. S2). All hits were not confirmed (ESI, ^† Fig. S1b).
All interaction kinetic experiments were conducted with a GCI–flow-based biosensor (WAVEdelta, Creoptix AG/Malvern Panalytical) and PCH WAVEchip (Creoptix AG/Malvern Panalytical) sensor chips. The sensor chips were conditioned using injections of borate buffer (10 mM sodium tetraborate pH 8.5, 1 M NaCl). The running buffer composition, if not otherwise stated, was TBS buffer (50 mM Tris, 150 mM NaCl, 0.5 mM TCEP, 0.05% Tween 20, 1% DMSO, pH 8). SMYD3 was diluted to the desired concentration in 10 mM bis-Tris (pH 7.0) and amine coupled to the sensor surface of the PCH sensor chip. The sensor chip was functionalized at 25 °C by immobilising SMYD3 with EDC and NHS (Xantec) using an injection time of 420 s and a flow rate of 10 μL min^−1. The immobilisation levels ranged from 5000 pg mm^−2 to 18 500 pg mm^−2 surface mass to enable analysis of fragments spanning a broad range of affinities. After immobilization, the surface was deactivated with a running buffer containing 50 mM Tris for 420 s. The GCI data referencing and analysis were performed using WAVEcontrol V4.5 (Creoptix AG).
Kinetic measurements with controls and fragments were performed at 15 °C. Analysis of controls and follow up of hits was done using the multi cycle kinetic (MCK) injection of a concentration series for the same time, with a two-fold serial dilution starting at 250 μM for each compound. Solvent correction was performed ranging from 0.5–1.8% DMSO. Blank samples of the running buffer, 1× TBS (50 mM Tris, 150 mM NaCl, 0.5 mM TCEP, 0.05% Tween 20, 1% DMSO, pH 8), were injected during the measurements every fifth cycle. The experimental design illustrated in Fig. 1 was used for the screening against all four surfaces. The sensorgrams were adjusted to account for solvent correction and blank subtraction. Kinetic fitting was performed with the Direct Kinetics engine of WAVEcontrol software V4.5 (Creoptix AG) with a suitable fitting model.
FL06268 Superstoichiometric and
Figure 1. Examples of sensorgrams from multicycle kinetic experiments with initial fragment hits and SMYD3. A)
Fragments for which crystal structures of the complex with SMYD3 were obtained. A global fit of the sensorgrams
crystal structures were not obtained. […]

Cn1cnc(S(N)(=O)=O)c1 [FL06268]
XRC: success or failure of crystallization in complex with SMYD3 ([1]; 5 mM fragment co-crystallization or soaking): (+)
Site (binding site in SMYD3 crystal structure) ([1]; four sites defined (1–4, Fig. 6) plus active site): both the active site (green surface) and site 2 and 2 + active
Outcome of multicycle kinetic experiment (sensorgram assessment) [2]: Superstoichiometric
